Target: T1, SMARCA2 (Homo sapiens, UniProt P51531)
T1 construct: endogenous in cells; host or cells: HT1080 (CRISPR HiBiT knock-in clone, generated in house)
Test: SMARCA2 HiBiT degradation assay (cellular)
Type: cell-based
Settings: table head names A549; for DC50: 6 h incubation, HiBiT-tagged SMARCA2, luminescence read-out, read-out: HiBit A549 SMARCA2 IP (nM) 6 h; for Emax: A549, 6 h incubation, Emax = amount of residual protein remaining in the cell following compound treatment

T1 sequence (P51531 whole entry): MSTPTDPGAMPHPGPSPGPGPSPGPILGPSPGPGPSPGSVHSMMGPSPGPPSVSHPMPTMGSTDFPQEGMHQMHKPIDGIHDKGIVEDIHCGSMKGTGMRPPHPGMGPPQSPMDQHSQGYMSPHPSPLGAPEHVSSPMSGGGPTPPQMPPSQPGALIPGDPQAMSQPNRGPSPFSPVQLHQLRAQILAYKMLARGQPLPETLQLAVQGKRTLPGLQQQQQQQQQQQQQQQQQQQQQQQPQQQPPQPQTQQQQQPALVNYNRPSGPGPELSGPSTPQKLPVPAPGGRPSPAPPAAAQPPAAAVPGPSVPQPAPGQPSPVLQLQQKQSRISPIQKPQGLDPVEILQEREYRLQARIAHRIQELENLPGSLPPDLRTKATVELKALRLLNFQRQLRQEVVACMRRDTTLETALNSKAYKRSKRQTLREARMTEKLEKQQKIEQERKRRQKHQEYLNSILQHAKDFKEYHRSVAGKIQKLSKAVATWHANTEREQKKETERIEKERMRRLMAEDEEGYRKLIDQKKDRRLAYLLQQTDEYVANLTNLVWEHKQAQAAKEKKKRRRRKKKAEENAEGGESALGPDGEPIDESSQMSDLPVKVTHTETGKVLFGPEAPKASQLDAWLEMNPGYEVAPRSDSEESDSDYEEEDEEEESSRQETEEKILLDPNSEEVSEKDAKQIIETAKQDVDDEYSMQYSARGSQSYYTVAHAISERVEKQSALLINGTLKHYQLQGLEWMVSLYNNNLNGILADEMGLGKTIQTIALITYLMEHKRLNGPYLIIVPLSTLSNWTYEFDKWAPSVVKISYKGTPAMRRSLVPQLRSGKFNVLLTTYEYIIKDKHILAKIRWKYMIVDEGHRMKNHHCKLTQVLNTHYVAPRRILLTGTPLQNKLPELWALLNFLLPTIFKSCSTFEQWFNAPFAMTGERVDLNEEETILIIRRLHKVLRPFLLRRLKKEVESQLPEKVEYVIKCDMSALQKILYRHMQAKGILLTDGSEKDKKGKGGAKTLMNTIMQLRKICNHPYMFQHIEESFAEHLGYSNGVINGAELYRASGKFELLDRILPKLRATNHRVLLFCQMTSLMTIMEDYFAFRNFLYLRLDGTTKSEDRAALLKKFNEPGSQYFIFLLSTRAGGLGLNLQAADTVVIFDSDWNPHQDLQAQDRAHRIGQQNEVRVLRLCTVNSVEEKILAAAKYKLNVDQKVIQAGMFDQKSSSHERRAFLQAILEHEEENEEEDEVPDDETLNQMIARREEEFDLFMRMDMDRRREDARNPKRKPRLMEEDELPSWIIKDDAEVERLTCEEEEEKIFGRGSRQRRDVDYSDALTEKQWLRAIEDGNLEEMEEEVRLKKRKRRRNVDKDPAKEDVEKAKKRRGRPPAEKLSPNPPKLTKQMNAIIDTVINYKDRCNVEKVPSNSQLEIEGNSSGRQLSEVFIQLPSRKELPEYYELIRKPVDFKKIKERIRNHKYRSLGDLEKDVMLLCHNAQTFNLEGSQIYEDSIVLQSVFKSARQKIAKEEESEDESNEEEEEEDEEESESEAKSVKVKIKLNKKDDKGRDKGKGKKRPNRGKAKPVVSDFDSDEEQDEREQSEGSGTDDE

| Structure (SMILES) | DC50 | Emax |
| --- | --- | --- |
| Nc1nnc(-c2ccccc2O)cc1N1CC2CCC(C1)N2c1cccc(OCCN2CCN(C(=O)CNC(=O)C3CCN(c4cccc5c4C(=O)N(C4CCC(=O)NC4=O)C5=O)CC3)CC2)c1 (racemic) [Example 18, rac-N-[2-[4-[2-[3-[3-[3-amino-6-(2-hydroxyphenyl)pyridazin-4-yl]-3,8-diazabicyclo[3.2.1]octan-8-yl]phenoxy]ethyl]piperazin-1-yl]-2-oxo-ethyl]-1-[2-(2,6-dioxo-3-piperidyl)-1,3-dioxo-isoindolin-4-yl]piperidine-4-carboxamide] | 134 nM | 62% |
| Nc1nnc(-c2ccccc2O)cc1OC1CCCN(c2ccc(N3CCN(C(=O)CCCCCCCC(=O)N4CC[C@H](Nc5cccc6c5C(=O)N(C5CCC(=O)NC5=O)C6=O)C4)CC3)cc2)C1 (mixture of isomers) [Example 45, 2-(2,6-dioxo-3-piperidyl)-4-[[rac-(3S)-1-[9-[4-[4-[3-[3-amino-6-(2-hydroxyphenyl)pyridazin-4-yl]oxy-1-piperidyl]phenyl]piperazin-1-yl]-9-oxo-nonanoyl]pyrrolidin-3-yl]amino]isoindoline-1,3-dione] | 627 nM | 58% |
| Nc1nnc(-c2ccccc2O)cc1N1CC2CCC(C1)N2c1cccc(OCCN2CCN(C(=O)CCNC(=O)C3CCN(c4ccc5c(c4)C(=O)N(C4CCC(=O)NC4=O)C5=O)CC3)CC2)c1 (racemic) [Example 42, rac-N-[3-[4-[2-[3-[3-[3-amino-6-(2-hydroxyphenyl)pyridazin-4-yl]-3,8-diazabicyclo[3.2.1]octan-8-yl]phenoxy]ethyl]piperazin-1-yl]-3-oxo-propyl]-1-[2-(2,6-dioxo-3-piperidyl)-1,3-dioxo-isoindolin-5-yl]piperidine-4-carboxamide] | 519 nM | 49% |
| Nc1nnc(-c2ccccc2O)cc1OC1CCCN(c2ccc(N3CCN(CCCCCCCCCc4ccc(CNc5cccc6c5C(=O)N(C5CCC(=O)NC5=O)C6=O)nc4)CC3)cc2)C1 (centres unmarked) [Example 136, 4-[[5-[9-[4-[4-[3-[3-amino-6-(2-hydroxyphenyl)pyridazin-4-yl]oxy-1-piperidyl]phenyl]piperazin-1-yl]nonyl]-2-pyridyl]methylamino]-2-(2,6-dioxo-3-piperidyl)isoindoline-1,3-dione] | 495 nM | 45% |
| CC(Oc1cccc2c1C(=O)N(C1CCC(=O)NC1=O)C2=O)c1cn(CCC(=O)N2CCN(CCCN3CCN(c4ccc(N5CCC[C@H](Oc6cc(-c7ccccc7O)nnc6N)C5)cc4)CC3)CC2)nn1 (mixture of isomers) [Example 204, 2-(2,6-dioxo-3-piperidyl)-4-[1-[1-[3-oxo-3-[4-[3-[4-[4-[rac-(3S)-3-[3-amino-6-(2-hydroxyphenyl)pyridazin-4-yl]oxy-1-piperidyl]phenyl]piperazin-1-yl]propyl]piperazin-1-yl]propyl]triazol-4-yl]ethoxy]isoindoline-1,3-dione] | 907 nM | 39% |

More lines, now with the values ahead:

| DC50 | Emax | Structure (SMILES) |
| --- | --- | --- |
| 164 nM | 63% | Nc1nnc(-c2ccccc2O)cc1OC1CCCN(c2ccc(N3CCN(C(=O)CCCCCCCCN4CCN(c5ccc6c(c5)C(=O)N(C5CCC(=O)NC5=O)C6=O)CC4)CC3)cc2)C1 (centres unmarked) [Example 26, 5-[4-[9-[4-[4-[3-[3-amino-6-(2-hydroxyphenyl)pyridazin-4-yl]oxy-1-piperidyl]phenyl]piperazin-1-yl]-9-oxo-nonyl]piperazin-1-yl]-2-(2,6-dioxo-3-piperidyl)isoindoline-1,3-dione] |
| 201 nM | 55% | Nc1nnc(-c2ccccc2O)cc1N1CC(Oc2ccc(CN3CCN(C(=O)CCCCCCCCCNc4cccc5c4C(=O)N(C4CCC(=O)NC4=O)C5=O)CC3)cc2)C1 (centres unmarked) [Example 68, 4-[[10-[4-[[4-[1-[3-amino-6-(2-hydroxyphenyl)pyridazin-4-yl]azetidin-3-yl]oxyphenyl]methyl]piperazin-1-yl]-10-oxo-decyl]amino]-2-(2,6-dioxo-3-piperidyl)isoindoline-1,3-dione] |
